Test results from US10195156B2, “Compounds and compositions for intracellular delivery of agents” (ModernaTX, Inc., priority 2015, dated 2019).

Assays:
[1] = Encapsulation efficiency of RNA (QUANT-IT RIBOGREEN RNA assay); assay type: physicochemical
Protocol: For nanoparticle compositions including an RNA, a QUANT-IT™ RIBOGREEN® RNA assay (Invitrogen Corporation Carlsbad, Calif.) can be used to evaluate the encapsulation of an RNA by the nanoparticle composition. The samples are diluted to a concentration of approximately 5 μg/mL in a TE buffer solution (10 mM Tris-HCl, 1 mM EDTA, pH 7.5). 50 μL of the diluted samples are transferred to a polystyrene 96 well plate and either 50 μL of TE buffer or 50 μL of a 2% Triton X-100 solution is added to the wells. The plate is incubated at a temperature of 37° C. for 15 minutes. The RIBOGREEN® reagent is diluted 1:100 in TE buffer, and 100 μL of this solution is added to each well. The fluorescence intensity can be measured using a fluorescence plate reader (Wallac Victor 1420 Multilablel Counter; Perkin Elmer, Waltham, Mass.) at an excitation wavelength of, for example, about 480 nm and an emission wavelength of, for example, about 520 nm. The fluorescence values of the reagent blank are subtracted from that of each of the samples and the percentage of free RNA is determined by dividing the fluorescence intensity of the intact sample (without addition of Triton X-100) by the fluorescence value of the disrupted sample (caused by the addition of Triton X-100).

[2] = test system: modified luciferase expression; assay: Expression of Luc in different organs (liver, lung, spleen, femur) 6 hours after intravenous administration; assay type: in vivo; details: i.v., 0.5 mpk
Protocol: The efficacy of the nanoparticle compositions presented in Tables 1, 1a, 17-1, 19-1, 20-1 and 21-1 was further evaluated by measuring the expression of modified luciferase in the liver, lung, spleen, and femur upon administration of a given composition. Formulations were administered intravenously to mice (n=3) at a dosage of 0.5 mpk and bioluminescence measured after 6 hours. The standard MC3 formulation and a PBS control were also tested.

IP-10 = assay: Cytokine production induced by sample formulations: IP-10; assay type: in vivo; details: mice, i.v., 0.5 mpk, 6 hours; for IP-10: in pg/mL (unit assumed)
Excerpt: (§1) The introduction of foreign material into a mammalian body induces an innate immune response that promotes cytokine production. Such immune responses to, for example, nanoparticle compositions including therapeutic and/or prophylactic agents, are undesirable. The induction of certain cytokines is thus measured to evaluate the […] of nanoparticle compositions. The concentrations of various cytokines in mice upon intravenous administration of nanoparticle compositions presented in Tables 1, 1a, 17-1, 19-1, 20-1 and 21-1 at a dosage of 0.5 mpk was measured at 6 hours. The standard MC3 formulation and a PBS control were also tested.

[3] = pKa of nanoparticle compositions; assay type: physicochemical
[4] = Particle size and polydispersity index of nanoparticle compositions (Zetasizer Nano ZS); assay type: physicochemical
Protocol: A Zetasizer Nano ZS (Malvern Instruments Ltd, Malvern, Worcestershire, UK) can be used to determine the particle size, the polydispersity index (PDI) and the zeta potential of the nanoparticle compositions in 1×PBS in determining particle size and 15 mM PBS in determining zeta potential.

[5] = test system: luciferase (Luc) mRNA expression; assay: Expression of Luc induced by sample formulations, whole-body bioluminescence after intravenous administration; assay type: in vivo; details: mice, i.v., 0.5 mg/kg
Protocol: In order to monitor how effectively various nanoparticle compositions deliver therapeutic and/or prophylactic agents to targeted cells, different nanoparticle compositions including a particular therapeutic and/or prophylactic agent (for example, a modified or naturally occurring RNA such as an mRNA) are prepared and administered to rodent populations. Mice are intravenously, intramuscularly, intraarterially, or intratumorally administered a single dose including a nanoparticle composition with a formulation such as those provided in Table 1. In some instances, mice may be made to inhale doses. Dose sizes may range from 0.001 mg/kg to 10 mg/kg, where 10 mg/kg describes a dose including 10 mg of a therapeutic and/or prophylactic agent in a nanoparticle composition for each 1 kg of body mass of the mouse. A control composition including PBS may also be employed.
Upon administration of nanoparticle compositions to mice, dose delivery profiles, dose responses, and toxicity of particular formulations and doses thereof can be measured by enzyme-linked immunosorbent assays (ELISA), bioluminescent imaging, or other methods. For nanoparticle compositions including mRNA, time courses of protein expression can also be evaluated. Samples collected from the rodents for evaluation may include blood, sera, and tissue (for example, muscle tissue from the site of an intramuscular injection and internal tissue); sample collection may involve sacrifice of the animals.
The efficacy of the nanoparticle compositions presented in Tables 1, 1a, 17-1, 19-1, 20-1 and 21-1 was evaluated with a bioluminescence study. Formulations were administered intravenously to mice (n=6) at a dosage of 0.5 mg/kg (mpk) and bioluminescence measured at 3, 6, and 24 hour time points. The standard MC3 formulation and a PBS control were evaluated for comparison.

IL-6 = assay: Cytokine production induced by sample formulations: IL-6; assay type: in vivo; details: mice, i.v., 0.5 mpk, 6 hours; for IL-6: in pg/mL (unit assumed)
Excerpt: as §1

[6] = Table 20-1, rows without footnote mark
[7] = Table 1, rows without footnote mark
[8] = Table 1, rows without footnote mark (lipid:DOPE:cholesterol:PEG-DMG 40:20:38.5:1.5, Luc mRNA; MC3 standard formulation)

CCCCC/C=C\C/C=C\CCCCCCCCN(CCO)CCCCCCCCC [Compound 17-3, 2-(Nonyl((9Z,12Z)-octadeca-9,12-dien-1-yl)amino)ethan-1-ol]
EE (%) ([1]; Table 17-1): 82.1%
Total Flux Liver ([2]; Table 17-3, mice): 2.51E+05
Total Flux Lung ([2]; Table 17-3, mice): 1.56E+04
Total Flux Spleen ([2]; Table 17-3, mice): 1.02E+05
IP-10 (IP-10; Table 17-4): 66.8
IP-10 induction, rank or comparison with IL-6 (in words) (IP-10): lowest IP-10 levels
pKa ([3]; Table 17-1): 6.69
PDI ([4]; Table 17-1): 0.095
Size (nm) ([4]; Table 17-1): 117.9 nm
Total Flux 3 hours ([5]; Table 17-2, 3 hours): 5.58E+05
Total Flux 6 hours ([5]; Table 17-2): 1.38E+06
Total Flux 24 hours ([5]; Table 17-2): 9.90E+05
IL-6 (IL-6; Table 17-4): 6.97
IL-6 induction, rank within the named table (in words) (IL-6): lowest IL-6 levels

CCCCC/C=C\C/C=C\CCCCCCCCN(CCO)CCN(CCCCCCCC/C=C\C/C=C\CCCCC)CCCCCCCC/C=C\C/C=C\CCCCC [Compound 20-14, 2-((2-(Di((9Z,12Z)-octadeca-9,12-dien-1-yl)amino)ethyl)((9Z,12Z)-octadeca-9,12-dien-1-yl)amino)ethan-1-ol]
EE (%) [1, 6]: 94.5%
Total Flux Liver ([2]; Table 20-3, mice): 5.22E+07
Total Flux Lung ([2]; Table 20-3, mice): 1.08E+05
Total Flux Spleen ([2]; Table 20-3, mice): 7.03E+05
IP-10 (IP-10; Table 20-4, formula (20-I)): 8436.6
IP-10 induction, rank or comparison with IL-6 (in words) (IP-10): highest
pKa [3, 6]: 5.89
PDI [4, 6]: 0.215
Size (nm) [4, 6]: 124.0 nm
Total Flux 3 hours ([5]; Table 20-2, 3 hours): 1.76E+09
Total Flux 6 hours ([5]; Table 20-2): 4.07E+08
Total Flux 24 hours ([5]; Table 20-2): 8.10E+07
IL-6 (IL-6; Table 20-4, formula (20-I)): 311.1

CCCCCCCCCCCCN(CCCCCCCCCCCC)CCN(CCO)CCCCCCCCC [Compound 20-17, 2-((2-(didodecylamino)ethyl)(nonyl)amino)ethan-1-ol]
EE (%) [1, 6]: 98.2%
Total Flux Liver ([2]; Table 20-3, mice): 2.99E+06
Total Flux Lung ([2]; Table 20-3, mice): 2.79E+04
Total Flux Spleen ([2]; Table 20-3, mice): 9.56E+04
IP-10 (IP-10; Table 20-4, formula (20-I)): 1207.0
pKa [3, 6]: 6.25
PDI [4, 6]: 0.092
Size (nm) [4, 6]: 71.2 nm
Total Flux 3 hours ([5]; Table 20-2, 3 hours): 1.97E+07
Total Flux 6 hours ([5]; Table 20-2): 1.44E+07
Total Flux 24 hours ([5]; Table 20-2): 1.54E+06
IL-6 (IL-6; Table 20-4, formula (20-I)): 6.3

CCCCCCCCCN(CCCCCCCCC)CCN(CCCCCCCCC)CCN1CCN(CCN(CCCCCCCCC)CCCCCCCCC)CC1 [Compound 18, N^1-(2-(4-(2-(Dinonylamino)ethyl)piperazin-1-yl)ethyl)-N^1,N^2,N^2-trinonylethane-1,2-diamine]
EE (%) [1, 7]: 98.4%
Total Flux Femur ([2]; Table 3, mice): 3.31E+06
Total Flux Liver ([2]; Table 3, mice): 3.91E+09
Total Flux Lung ([2]; Table 3, mice): 1.87E+07
Total Flux Spleen ([2]; Table 3, mice): 1.60E+07
IP-10 (IP-10; Table 4): 655
pKa [3, 7]: 6.17
PDI [4, 7]: 0.120
Size (nm) [4, 8]: 76.7 nm
Total Flux 3 hours ([5]; Table 2, 3 hours): 2.13E+10
Total Flux 6 hours ([5]; Table 2): 1.76E+10
Total Flux 24 hours ([5]; Table 2): 7.00E+08
total flux after 3 hours, rank within the named table (in words) ([5]; 3 hours): highest flux after 3 hours
IL-6 (IL-6; Table 4): 263

CCCCCCCOC(=O)CCCCCN(CCO)CCN(CCCCCC(=O)OCCCCCCC)CCCCCC(=O)OCCCCCCC [Compound 20-5, Diheptyl 6,6′-((2-((6-(heptyloxy)-6-oxohexyl)(2hydroxyethyl)amino)ethyl)azanediyl)dihexanoate]
EE (%) [1, 6]: 78.1%
Total Flux Femur ([2]; Table 20-3, mice): 9.53E+04
Total Flux Liver ([2]; Table 20-3, mice): 2.67E+06
Total Flux Lung ([2]; Table 20-3, mice): 5.80E+04
Total Flux Spleen ([2]; Table 20-3, mice): 3.40E+06
IP-10 (IP-10; Table 20-4, formula (20-I)): 2012.3
pKa [3, 6]: 6.79
PDI [4, 6]: 0.210
Size (nm) [4, 6]: 119.3 nm
Total Flux 3 hours ([5]; Table 20-2, 3 hours): 6.07E+07
Total Flux 6 hours ([5]; Table 20-2): 1.99E+07
Total Flux 24 hours ([5]; Table 20-2): 2.07E+06
IL-6 (IL-6; Table 20-4, formula (20-I)): 140.8

CCCCCCCCCCCCN(CCO)CCN(CCCCCCCCC)CCCCCCCCC [Compound 20-18, 2-((2-(Dinonylamino)ethyl)(dodecyl)amino)ethan-1-ol]
EE (%) [1, 6]: 91.1%
Total Flux Femur ([2]; Table 20-3, mice): 3.78E+05
Total Flux Liver ([2]; Table 20-3, mice): 4.83E+08
Total Flux Lung ([2]; Table 20-3, mice): 1.84E+06
Total Flux Spleen ([2]; Table 20-3, mice): 2.36E+06
IP-10 (IP-10; Table 20-4, formula (20-I)): 572.7
pKa [3, 6]: 6.31
PDI [4, 6]: 0.150
Size (nm) [4, 6]: 70.1 nm
Total Flux 3 hours ([5]; Table 20-2, 3 hours): 5.80E+09
Total Flux 6 hours ([5]; Table 20-2): 6.48E+09
Total Flux 24 hours ([5]; Table 20-2): 1.54E+09
IL-6 (IL-6; Table 20-4, formula (20-I)): 102

CCCCCCCCCCCCN(CCCCO)CCCCCCCCCCCC [Compound 17-13, 4-(Didodecylamino)butan-1-ol]
EE (%) ([1]; Table 17-1): 89.22%
Total Flux Liver ([2]; Table 17-3, mice): 3.56E+05
Total Flux Lung ([2]; Table 17-3, mice): 4.66E+04
Total Flux Spleen ([2]; Table 17-3, mice): 1.90E+05
IP-10 (IP-10; Table 17-4): 222
pKa ([3]; Table 17-1): 6.89
PDI ([4]; Table 17-1): 0.176
Size (nm) ([4]; Table 17-1): 90.4 nm
Total Flux 3 hours ([5]; Table 17-2, 3 hours): 1.10E+06
Total Flux 6 hours ([5]; Table 17-2): 1.80E+06
Total Flux 24 hours ([5]; Table 17-2): 7.95E+05
IL-6 (IL-6; Table 17-4): 84.3

CCCCCCCC/C=C\CCCCCCCCN(CCCCCCCC/C=C\CCCCCCCC)CCN(CCCCCCCC/C=C\CCCCCCCC)CCN1CCN(CCN(CCCCCCCCCCCC)CCCCCCCCCCCC)CC1 [Compound 33, N^1-(2-(4-(2-(Didodecylamino)ethyl)piperazin-1-yl)ethyl)-N^1,N^2,N^2-tri((Z)-octadec-9-en-1-yl)ethane-1,2-diamine]
EE (%) [1, 7]: 98.1%
Total Flux Femur ([2]; Table 3, mice): 1.18E+06
Total Flux Liver ([2]; Table 3, mice): 6.15E+08
Total Flux Lung ([2]; Table 3, mice): 2.84E+06
Total Flux Spleen ([2]; Table 3, mice): 4.82E+06
IP-10 (IP-10; Table 4): 1577
pKa [3, 7]: 6.06
PDI [4, 7]: 0.138
Size (nm) [4, 8]: 79.7 nm
Total Flux 3 hours ([5]; Table 2, 3 hours): 1.64E+09
Total Flux 6 hours ([5]; Table 2): 4.71E+09
Total Flux 24 hours ([5]; Table 2): 1.54E+08
IL-6 (IL-6; Table 4): 37
